Species: Rattus norvegicus
Assay: Open TG-GATES - Regimen: Daily Repeat
Type: toxicity, organism-based, Sprague-Dawley
Design: regimen Daily Repeat, gender Male, age 6 weeks
Conditions: in vivo, po, route gavage; for APTT / Bas / Eos / Fbg / Hb / Ht / Lym / MCH / MCHC / MCV / Mono / Neu / PT / Plat / RBC / Ret / WBC: tissue Blood; for KIDNEY_L / KIDNEY_R / KIDNEY_TOTAL: tissue Kidney; for LIVER: tissue Liver; for A/G / ALP / ALT / AST / BUN / CRE / Ca / Cl / DBIL / GLC / IP / K / LDH / Na / PL / RALB / TBIL / TC / TG / TP / gamma-GTP: tissue Plasma
[1] = 0 mg/kg, 72 h, dose level Control, time 3 day
[2] = 0 mg/kg, […], dose level Control, time 7 day
[3] = 0 mg/kg, […], dose level Control, time 14 day
[4] = 0 mg/kg, […], dose level Control, time 28 day
[5] = 30 mg/kg, 72 h, dose level Low, time 3 day
[6] = 30 mg/kg, […], dose level Low, time 7 day
[7] = 30 mg/kg, […], dose level Low, time 14 day
[8] = 30 mg/kg, […], dose level Low, time 28 day

O=C(O)COc1nn(Cc2ccccc2)c2ccccc12 [BENDAZAC]
TERMINAL_BW [1]: 229.2 g
APTT [1]: 17.5 s
Bas [1]: 0%
Eos [1]: 1.2%
Fbg [1]: 223.2 mg/dL
Hb [1]: 14.2 g/dL
Ht [1]: 42.6%
Lym [1]: 77.2%
MCH [1]: 21.4 pg
MCHC [1]: 33.3%
MCV [1]: 64.4 fL
Mono [1]: 8.2%
Neu [1]: 13.8%
PT [1]: 11.6 s
Plat [1]: 120.1 x10_4/uL
RBC [1]: 661.6 x10_4/ul
Ret [1]: 6.5%
WBC [1]: 93.7 x10_2/uL
KIDNEY_L [1]: 1 g
KIDNEY_R [1]: 1 g
KIDNEY_TOTAL [1]: 2 g
LIVER [1]: 11.2 g
A/G [1]: 2.1
ALP [1]: 1059.4 IU/L
ALT [1]: 41.4 IU/L
AST [1]: 68.6 IU/L
BUN [1]: 16.6 mg/dL
CRE [1]: 0.5 mg/dL
Ca [1]: 10.9 mg/dL
Cl [1]: 103.4 meq/L
DBIL [1]: 0.022 mg/dL
GLC [1]: 206.8 mg/dL
IP [1]: 7.7 mg/dL
K [1]: 4.7 meq/L
LDH [1]: 101.4 IU/L
Na [1]: 139.8 meq/L
PL [1]: 162.8 mg/dL
RALB [1]: 3.9 g/dL
TBIL [1]: 0.3 mg/dL
TC [1]: 78.2 mg/dL
TG [1]: 127.8 mg/dL
TP [1]: 5.7 g/dL
gamma-GTP [1]: 1.2 IU/L
TERMINAL_BW [2]: 264.6 g
TERMINAL_BW [3]: 318.4 g
TERMINAL_BW [4]: 399.8 g
APTT [2]: 16.9 s
Bas [2]: 0%
Eos [2]: 0.8%
Fbg [2]: 228.6 mg/dL
Hb [2]: 14.1 g/dL
Ht [2]: 41.4%
Lym [2]: 80.8%
MCH [2]: 21.5 pg
MCHC [2]: 34.1%
MCV [2]: 63.2 fL
Mono [2]: 6%
Neu [2]: 12.6%
PT [2]: 11.5 s
Plat [2]: 128.1 x10_4/uL
RBC [2]: 657 x10_4/ul
Ret [2]: 5.1%
WBC [2]: 96.5 x10_2/uL
APTT [3]: 17.2 s
Bas [3]: 0%
Eos [3]: 0.8%
Fbg [3]: 236 mg/dL
Hb [3]: 14.5 g/dL
Ht [3]: 43%
Lym [3]: 80.4%
MCH [3]: 21.2 pg
MCHC [3]: 33.8%
MCV [3]: 62.8 fL
Mono [3]: 7%
Neu [3]: 11.8%
PT [3]: 11 s
Plat [3]: 122.8 x10_4/uL
RBC [3]: 684.4 x10_4/ul
Ret [3]: 4.3%
WBC [3]: 120.8 x10_2/uL
APTT [4]: 17.8 s
Bas [4]: 0%
Eos [4]: 1%
Fbg [4]: 219 mg/dL
Hb [4]: 15.5 g/dL
Ht [4]: 45.9%
Lym [4]: 83.6%
MCH [4]: 19.8 pg
MCHC [4]: 33.7%
MCV [4]: 58.8 fL
Mono [4]: 4.2%
Neu [4]: 11.4%
PT [4]: 11.7 s
Plat [4]: 115.9 x10_4/uL
RBC [4]: 779.8 x10_4/ul
Ret [4]: 3.5%
WBC [4]: 117.2 x10_2/uL
KIDNEY_L [2]: 1.1 g
KIDNEY_R [2]: 1.2 g
KIDNEY_TOTAL [2]: 2.3 g
KIDNEY_L [3]: 1.3 g
KIDNEY_R [3]: 1.3 g
KIDNEY_TOTAL [3]: 2.6 g
KIDNEY_L [4]: 1.4 g
KIDNEY_R [4]: 1.4 g
KIDNEY_TOTAL [4]: 2.8 g
LIVER [2]: 13.2 g
LIVER [3]: 15.1 g
LIVER [4]: 16.2 g
A/G [2]: 2
ALP [2]: 804.6 IU/L
ALT [2]: 30 IU/L
AST [2]: 60.8 IU/L
BUN [2]: 19.6 mg/dL
CRE [2]: 0.5 mg/dL
Ca [2]: 11.3 mg/dL
Cl [2]: 103.6 meq/L
DBIL [2]: 0.012 mg/dL
GLC [2]: 222.6 mg/dL
IP [2]: 8 mg/dL
K [2]: 4.8 meq/L
LDH [2]: 84.8 IU/L
Na [2]: 141.2 meq/L
PL [2]: 146.2 mg/dL
RALB [2]: 3.9 g/dL
TBIL [2]: 0.3 mg/dL
TC [2]: 70 mg/dL
TG [2]: 111 mg/dL
TP [2]: 5.8 g/dL
gamma-GTP [2]: 1 IU/L
A/G [3]: 1.6
ALP [3]: 749.8 IU/L
ALT [3]: 32 IU/L
AST [3]: 61.2 IU/L
BUN [3]: 18.2 mg/dL
CRE [3]: 0.5 mg/dL
Ca [3]: 10.4 mg/dL
Cl [3]: 105.4 meq/L
DBIL [3]: 0.006 mg/dL
GLC [3]: 197.2 mg/dL
IP [3]: 7.1 mg/dL
K [3]: 4.7 meq/L
LDH [3]: 102.2 IU/L
Na [3]: 141.2 meq/L
PL [3]: 158 mg/dL
RALB [3]: 3.8 g/dL
TBIL [3]: 0.3 mg/dL
TC [3]: 74.8 mg/dL
TG [3]: 153.2 mg/dL
TP [3]: 6.2 g/dL
gamma-GTP [3]: 2.4 IU/L
A/G [4]: 1.4
ALP [4]: 590.2 IU/L
ALT [4]: 33.2 IU/L
AST [4]: 64.4 IU/L
BUN [4]: 20 mg/dL
CRE [4]: 0.6 mg/dL
Ca [4]: 10 mg/dL
Cl [4]: 104.8 meq/L
DBIL [4]: 0.01 mg/dL
GLC [4]: 189.8 mg/dL
IP [4]: 6.4 mg/dL
K [4]: 4.4 meq/L
LDH [4]: 71.4 IU/L
Na [4]: 140.4 meq/L
PL [4]: 142.8 mg/dL
RALB [4]: 3.6 g/dL
TBIL [4]: 0.3 mg/dL
TC [4]: 71.2 mg/dL
TG [4]: 130 mg/dL
TP [4]: 6.2 g/dL
gamma-GTP [4]: 1.8 IU/L
TERMINAL_BW [5]: 236.5 g
APTT [5]: 17 s
Bas [5]: 0%
Eos [5]: 1.4%
Fbg [5]: 215.2 mg/dL
Hb [5]: 13.4 g/dL
Ht [5]: 40.6%
Lym [5]: 79.2%
MCH [5]: 21.1 pg
MCHC [5]: 33%
MCV [5]: 63.9 fL
Mono [5]: 6.6%
Neu [5]: 12.8%
PT [5]: 11.9 s
Plat [5]: 128 x10_4/uL
RBC [5]: 636 x10_4/ul
Ret [5]: 6.9%
WBC [5]: 98.4 x10_2/uL
KIDNEY_L [5]: 1 g
KIDNEY_R [5]: 1 g
KIDNEY_TOTAL [5]: 2.1 g
LIVER [5]: 11.9 g
A/G [5]: 2.2
ALP [5]: 891 IU/L
ALT [5]: 36.6 IU/L
AST [5]: 66.6 IU/L
BUN [5]: 17.2 mg/dL
CRE [5]: 0.6 mg/dL
Ca [5]: 11 mg/dL
Cl [5]: 103 meq/L
DBIL [5]: 0.018 mg/dL
GLC [5]: 205.2 mg/dL
IP [5]: 7.5 mg/dL
K [5]: 4.5 meq/L
LDH [5]: 128 IU/L
Na [5]: 140.4 meq/L
PL [5]: 149.8 mg/dL
RALB [5]: 3.9 g/dL
TBIL [5]: 0.4 mg/dL
TC [5]: 74.4 mg/dL
TG [5]: 99.6 mg/dL
TP [5]: 5.7 g/dL
gamma-GTP [5]: 0.8 IU/L
TERMINAL_BW [6]: 260.1 g
TERMINAL_BW [7]: 298.7 g
TERMINAL_BW [8]: 393.4 g
APTT [6]: 17.3 s
Bas [6]: 0%
Eos [6]: 1.2%
Fbg [6]: 214.6 mg/dL
Hb [6]: 14.1 g/dL
Ht [6]: 41.5%
Lym [6]: 78.4%
MCH [6]: 21.2 pg
MCHC [6]: 34%
MCV [6]: 62.4 fL
Mono [6]: 6.8%
Neu [6]: 14%
PT [6]: 11.7 s
Plat [6]: 131.9 x10_4/uL
RBC [6]: 665.6 x10_4/ul
Ret [6]: 6.1%
WBC [6]: 109.2 x10_2/uL
APTT [7]: 17.1 s
Bas [7]: 0%
Eos [7]: 0.6%
Fbg [7]: 228.2 mg/dL
Hb [7]: 14.9 g/dL
Ht [7]: 44%
Lym [7]: 85.2%
MCH [7]: 20.6 pg
MCHC [7]: 33.8%
MCV [7]: 61 fL
Mono [7]: 3.4%
Neu [7]: 10.4%
PT [7]: 11 s
Plat [7]: 121.3 x10_4/uL
RBC [7]: 720.6 x10_4/ul
Ret [7]: 2.8%
WBC [7]: 112.1 x10_2/uL
APTT [8]: 17.2 s
Bas [8]: 0%
Eos [8]: 1.2%
Fbg [8]: 217.6 mg/dL
Hb [8]: 15.4 g/dL
Ht [8]: 45.1%
Lym [8]: 77.4%
MCH [8]: 19.3 pg
MCHC [8]: 34.1%
MCV [8]: 56.7 fL
Mono [8]: 5.4%
Neu [8]: 15.4%
PT [8]: 12 s
Plat [8]: 119.3 x10_4/uL
RBC [8]: 796.6 x10_4/ul
Ret [8]: 2.3%
WBC [8]: 105.4 x10_2/uL
KIDNEY_L [6]: 1.1 g
KIDNEY_R [6]: 1.1 g
KIDNEY_TOTAL [6]: 2.2 g
KIDNEY_L [7]: 1.2 g
KIDNEY_R [7]: 1.2 g
KIDNEY_TOTAL [7]: 2.5 g
KIDNEY_L [8]: 1.5 g
KIDNEY_R [8]: 1.5 g
KIDNEY_TOTAL [8]: 2.9 g
LIVER [6]: 12.5 g
LIVER [7]: 13.5 g
LIVER [8]: 16.7 g
A/G [6]: 2.1
ALP [6]: 930 IU/L
ALT [6]: 32.8 IU/L
AST [6]: 68.4 IU/L
BUN [6]: 18.6 mg/dL
CRE [6]: 0.5 mg/dL
Ca [6]: 10.9 mg/dL
Cl [6]: 104.8 meq/L
DBIL [6]: 0 mg/dL
GLC [6]: 214.2 mg/dL
IP [6]: 7.2 mg/dL
K [6]: 4.5 meq/L
LDH [6]: 94.4 IU/L
Na [6]: 142 meq/L
PL [6]: 145.4 mg/dL
RALB [6]: 3.9 g/dL
TBIL [6]: 0.4 mg/dL
TC [6]: 72 mg/dL
TG [6]: 114.6 mg/dL
TP [6]: 5.7 g/dL
gamma-GTP [6]: 0.8 IU/L
A/G [7]: 1.7
ALP [7]: 683.4 IU/L
ALT [7]: 31.6 IU/L
AST [7]: 62.6 IU/L
BUN [7]: 18.4 mg/dL
CRE [7]: 0.5 mg/dL
Ca [7]: 10.5 mg/dL
Cl [7]: 105.8 meq/L
DBIL [7]: 0.03 mg/dL
GLC [7]: 185.4 mg/dL
IP [7]: 6.9 mg/dL
K [7]: 4.6 meq/L
LDH [7]: 131.8 IU/L
Na [7]: 140.8 meq/L
PL [7]: 154.2 mg/dL
RALB [7]: 3.8 g/dL
TBIL [7]: 0.3 mg/dL
TC [7]: 73.2 mg/dL
TG [7]: 125.8 mg/dL
TP [7]: 6 g/dL
gamma-GTP [7]: 1.4 IU/L
A/G [8]: 1.5
ALP [8]: 780.4 IU/L
ALT [8]: 30.4 IU/L
AST [8]: 62.4 IU/L
BUN [8]: 17.6 mg/dL
CRE [8]: 0.5 mg/dL
Ca [8]: 10 mg/dL
Cl [8]: 104.2 meq/L
DBIL [8]: 0.006 mg/dL
GLC [8]: 192.2 mg/dL
IP [8]: 6 mg/dL
K [8]: 4.4 meq/L
LDH [8]: 90 IU/L
Na [8]: 139.6 meq/L
PL [8]: 147.6 mg/dL
RALB [8]: 3.7 g/dL
TBIL [8]: 0.3 mg/dL
TC [8]: 68.2 mg/dL
TG [8]: 169 mg/dL
TP [8]: 6.3 g/dL
gamma-GTP [8]: 1.6 IU/L
